11 molecules from patent publication US7750003B2, “Compounds-943” (AstraZeneca AB, priority 2006, dated 2010) can be followed below.

Several values for one entry are separate records, joined by “and”; a condition that tells them apart may be missing. Identical values can stand only once.

Sequence of recombinant mTOR (FLAG-tagged, residues 1362-2549) (P42345 1362-2549): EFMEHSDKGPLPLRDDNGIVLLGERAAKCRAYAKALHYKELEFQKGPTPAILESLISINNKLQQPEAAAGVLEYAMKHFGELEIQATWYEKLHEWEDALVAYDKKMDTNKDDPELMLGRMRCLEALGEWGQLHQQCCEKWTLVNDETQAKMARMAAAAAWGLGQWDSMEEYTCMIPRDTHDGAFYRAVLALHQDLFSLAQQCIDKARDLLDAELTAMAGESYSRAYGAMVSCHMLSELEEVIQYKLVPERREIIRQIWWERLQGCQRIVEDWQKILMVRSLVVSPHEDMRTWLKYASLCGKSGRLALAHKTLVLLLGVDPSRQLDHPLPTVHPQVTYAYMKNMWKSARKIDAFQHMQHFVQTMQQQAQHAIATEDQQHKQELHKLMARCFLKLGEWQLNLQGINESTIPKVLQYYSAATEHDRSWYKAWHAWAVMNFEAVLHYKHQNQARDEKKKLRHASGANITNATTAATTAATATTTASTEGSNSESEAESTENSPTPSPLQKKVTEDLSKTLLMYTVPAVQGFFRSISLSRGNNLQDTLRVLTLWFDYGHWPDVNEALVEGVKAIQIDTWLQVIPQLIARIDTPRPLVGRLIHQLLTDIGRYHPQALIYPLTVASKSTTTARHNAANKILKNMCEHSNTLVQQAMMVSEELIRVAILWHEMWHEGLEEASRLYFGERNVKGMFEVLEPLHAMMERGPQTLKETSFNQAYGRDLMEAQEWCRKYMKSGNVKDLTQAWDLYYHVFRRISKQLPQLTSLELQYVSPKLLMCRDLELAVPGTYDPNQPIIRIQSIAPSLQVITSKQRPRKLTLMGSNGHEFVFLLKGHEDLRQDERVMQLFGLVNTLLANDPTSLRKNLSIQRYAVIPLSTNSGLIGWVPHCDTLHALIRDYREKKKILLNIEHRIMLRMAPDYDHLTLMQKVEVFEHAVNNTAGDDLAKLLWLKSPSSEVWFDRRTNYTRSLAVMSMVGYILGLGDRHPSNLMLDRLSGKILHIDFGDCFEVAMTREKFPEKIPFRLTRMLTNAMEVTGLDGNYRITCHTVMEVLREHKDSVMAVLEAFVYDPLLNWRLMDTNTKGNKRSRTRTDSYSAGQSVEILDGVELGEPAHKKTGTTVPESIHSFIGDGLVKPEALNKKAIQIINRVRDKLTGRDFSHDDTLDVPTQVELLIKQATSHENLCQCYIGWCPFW
T1 sequence (P42336 whole entry, canonical isoform): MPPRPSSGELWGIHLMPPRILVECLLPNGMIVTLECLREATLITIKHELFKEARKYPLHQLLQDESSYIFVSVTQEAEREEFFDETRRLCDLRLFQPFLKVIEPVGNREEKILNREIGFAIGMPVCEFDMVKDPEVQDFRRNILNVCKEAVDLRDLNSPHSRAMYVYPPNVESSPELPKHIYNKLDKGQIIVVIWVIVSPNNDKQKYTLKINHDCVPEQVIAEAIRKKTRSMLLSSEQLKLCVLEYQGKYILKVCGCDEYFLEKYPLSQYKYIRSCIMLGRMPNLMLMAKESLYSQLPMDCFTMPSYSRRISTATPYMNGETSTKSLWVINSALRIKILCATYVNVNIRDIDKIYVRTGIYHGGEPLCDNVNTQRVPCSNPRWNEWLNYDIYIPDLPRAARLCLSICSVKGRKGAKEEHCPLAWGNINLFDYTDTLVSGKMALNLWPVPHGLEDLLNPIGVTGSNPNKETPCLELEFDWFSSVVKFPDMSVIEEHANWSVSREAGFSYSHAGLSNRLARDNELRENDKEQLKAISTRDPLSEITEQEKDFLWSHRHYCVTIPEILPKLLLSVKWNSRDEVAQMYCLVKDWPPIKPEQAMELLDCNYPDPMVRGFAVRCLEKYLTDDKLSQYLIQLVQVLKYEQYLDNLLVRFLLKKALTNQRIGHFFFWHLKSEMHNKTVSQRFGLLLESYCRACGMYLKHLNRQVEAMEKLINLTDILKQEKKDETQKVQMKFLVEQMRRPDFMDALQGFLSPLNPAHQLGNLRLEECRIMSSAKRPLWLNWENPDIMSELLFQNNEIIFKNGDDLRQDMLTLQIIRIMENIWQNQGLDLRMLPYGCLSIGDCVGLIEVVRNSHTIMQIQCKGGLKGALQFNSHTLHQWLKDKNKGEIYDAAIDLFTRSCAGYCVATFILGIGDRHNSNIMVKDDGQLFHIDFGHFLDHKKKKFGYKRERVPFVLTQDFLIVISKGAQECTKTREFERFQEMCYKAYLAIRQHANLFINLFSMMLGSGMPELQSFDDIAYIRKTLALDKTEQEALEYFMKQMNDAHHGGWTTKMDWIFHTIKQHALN
T1 sequence (P27986 whole entry partner, canonical isoform): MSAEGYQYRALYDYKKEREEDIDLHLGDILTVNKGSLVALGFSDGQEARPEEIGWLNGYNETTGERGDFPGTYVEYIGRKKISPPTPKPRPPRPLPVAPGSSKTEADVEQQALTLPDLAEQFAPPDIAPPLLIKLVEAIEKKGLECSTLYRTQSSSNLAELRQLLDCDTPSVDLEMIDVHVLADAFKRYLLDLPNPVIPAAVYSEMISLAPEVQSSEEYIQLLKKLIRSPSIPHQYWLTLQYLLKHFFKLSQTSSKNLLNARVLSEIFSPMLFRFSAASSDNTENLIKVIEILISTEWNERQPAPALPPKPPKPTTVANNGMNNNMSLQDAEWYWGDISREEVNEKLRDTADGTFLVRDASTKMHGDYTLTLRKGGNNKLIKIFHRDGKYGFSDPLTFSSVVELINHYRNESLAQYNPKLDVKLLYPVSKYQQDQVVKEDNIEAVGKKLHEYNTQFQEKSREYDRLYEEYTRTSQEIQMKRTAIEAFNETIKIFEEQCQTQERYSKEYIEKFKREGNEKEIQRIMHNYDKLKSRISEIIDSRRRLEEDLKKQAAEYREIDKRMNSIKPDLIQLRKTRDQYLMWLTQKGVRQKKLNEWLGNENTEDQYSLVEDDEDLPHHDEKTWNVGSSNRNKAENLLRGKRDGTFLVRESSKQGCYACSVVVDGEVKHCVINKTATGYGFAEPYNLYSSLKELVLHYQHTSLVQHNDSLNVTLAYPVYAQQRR

One test deals with phosphorylation of Serine 473 in Akt in MDA-MB-468 human breast adenocarcinoma cells. As to the kind of experiment: In vitro phospho-Ser473 Akt assay (Test (c)). Type of test: cell-based. Conditions: Homo sapiens, MDA-MB-468, 2 h, MDA-MB-468 cells, 2 hours incubation; read-out: Test (c): IC50 versus Serine 473 in Akt. The gist of the method: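 MDA-MB-468 cells (15000/well, adhered overnight) treated with compound for 2 h at 37 °C, 5% CO2. After formaldehyde fixation, permeabilisation and blocking, phospho-Akt Ser473 immunostained with Alexafluor488 secondary and quantified by laser-scanning imaging (Acumen Explorer); IC50 from fluorescence dose–response.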
As for `C[C@H]1COCCN1c1cc(C(C)(C)S(=O)(=O)c2ccc(F)cc2)nc(-c2ccc(NC(=O)NC3CC3)cc2)n1` [Example 61q, 3-cyclopropyl-1-[4-[4-[2-(4-fluorophenyl)sulfonylpropan-2-yl]-6-[(3S)-3-methylmorpholin-4-yl]pyrimidin-2-yl]phenyl]urea], the half-inhibitory concentration (IC50) stood at 0.077 µM.

For `C[C@H]1COCCN1c1cc(C(=O)N2CCOCC2)nc(-c2ccc(NC(=O)NC3CC3)cc2)n1` [Example 63, 3-Cyclopropyl-1-[4-[4-[(3S)-3-methylmorpholin-4-yl]-6-(morpholine-4-carbonyl)pyrimidin-2-yl]phenyl]urea], the IC50 amounted to 0.41 µM.

For `C[C@H]1COCCN1c1cc(C(=O)N2CCCNCC2)nc(-c2ccc(NC(=O)NC3CC3)cc2)n1` [Example 63a, 3-cyclopropyl-1-[4-[4-(1,4-diazepane-1-carbonyl)-6-[(3S)-3-methylmorpholin-4-yl]pyrimidin-2-yl]phenyl]urea], the IC50 stood at 0.092 µM.

For `C[C@H]1COCCN1c1cc(C(=O)N2CCS(=O)(=O)CC2)nc(-c2ccc(NC(=O)NC3CC3)cc2)n1` [Example 63b, 3-cyclopropyl-1-[4-[4-(1,1-dioxo1,4-thiazinane-4-carbonyl)-6-[(3S)-3-methylmorpholin-4-yl]pyrimidin-2-yl]phenyl]urea], the IC50 was 0.5 µM.

For the molecule `C[C@@H]1CN(C(=O)c2cc(N3CCOC[C@@H]3C)nc(-c3ccc(NC(=O)NC4CC4)cc3)n2)C[C@H](C)O1` [Example 63c, 3-cyclopropyl-1-[4-[4-[(2R,6S)-2,6-dimethylmorpholine-4-carbonyl]-6-[(3S)-3-methylmorpholin-4-yl]pyrimidin-2-yl]phenyl]urea], the IC50 is 0.26 µM.

As for `C[C@H]1COCCN1c1cc(C(C)(C)S(=O)(=O)C(C)(C)C)nc(-c2ccc(NC(=O)NC3CC3)cc2)n1` [Example 66c, 3-cyclopropyl-1-[4-[4-[(3S)-3-methylmorpholin-4-yl]-6-(2-tert-butylsulfonylpropan-2-yl)pyrimidin-2-yl]phenyl]urea], the IC50 worked out at 0.15 µM.

On to `C[C@H]1COCCN1c1cc(C(C)(C)S(=O)(=O)C(C)(C)C)nc(-c2ccc(NC(=O)NC3CCC3)cc2)n1` [Example 66d, 3-cyclobutyl-1-[4-[4-[(3S)-3-methylmorpholin-4-yl]-6-(2-tert-butylsulfonylpropan-2-yl)pyrimidin-2-yl]phenyl]urea], for which the half-maximal inhibitory concentration (IC50) was found to be 0.16 µM.

For the molecule `CCNC(=O)Nc1ccc(-c2nc(N3CCOC[C@@H]3C)cc(C(C)(C)S(=O)(=O)C(C)(C)C)n2)cc1` [Example 66e, 3-ethyl-1-[4-[4-[(3S)-3-methylmorpholin-4-yl]-6-(2-tert-butylsulfonylpropan-2-yl)pyrimidin-2-yl]phenyl]urea], the IC50 stood at 0.26 µM.

Take `C[C@H]1COCCN1c1cc(C(C)(C)S(=O)(=O)C(C)(C)C)nc(-c2ccc(NC(=O)NCCN(C)C)cc2)n1` [Example 66f, 3-(2-dimethylaminoethyl)-1-[4-[4-[(3S)-3-methylmorpholin-4-yl]-6-(2-tert-butylsulfonylpropan-2-yl)pyrimidin-2-yl]phenyl]urea]: the IC50 was 0.04 µM.

As to `C[C@H]1COCCN1c1cc(C(C)(C)S(=O)(=O)C(C)(C)C)nc(-c2ccc(NC(=O)NCCO)cc2)n1` [Example 66g, 3-(2-hydroxyethyl)-1-[4-[4-[(3S)-3-methylmorpholin-4-yl]-6-(2-tert-butylsulfonylpropan-2-yl)pyrimidin-2-yl]phenyl]urea], the IC50 is 0.3 µM.

A further test concerns the target recombinant mTOR (FLAG-tagged, residues 1362-2549) (Homo sapiens, UniProt P42345). The experiment in a line: In vitro mTOR kinase assay (Test (a), AlphaScreen). It counts as biochemical. Conditions: ATP 20 μM, read-out: Test (a): IC50 versus mTOR kinase. The gist of the method: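 AlphaScreen read-out: a phospho-T389 p70 S6K antibody on acceptor beads captures the phosphorylated biotin-peptide on donor beads, with signal loss indicating inhibition.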
As to `Cc1cc(NC(=O)Nc2ccc(-c3nc(CS(C)(=O)=O)cc(N4CCOCC4)n3)cc2)no1` [Example 34b, 1-(5-methyl-1,2-oxazol-3-yl)-3-[4-[4-(methylsulfonylmethyl)-6-morpholin-4-yl-pyrimidin-2-yl]phenyl]urea], the IC50 is 0.12 µM and 0.155 µM and 0.093 µM.

A further test addresses T1, p110α Type Ia human PI3K (Homo sapiens, UniProt P42336).
T1 construct: full length DNA of each of the p110α, p110β and p110δ Type Ia human PI3K p110 isoforms; 6-His; made in house
The experiment in a line: In vitro PI3K enzyme assay (Test (b), AlphaScreen), p110α. Conditions: ATP 4 μM, read-out: Test (b): IC50 versus p110α Type Ia human PI3K. It counts as biochemical. From the text:
(b) In Vitro PI3K Enzyme Assay
The assay used AlphaScreen technology (Gray et al., Analytical Biochemistry, 2003, 313: 234-245) to determine the ability of test compounds to inhibit phosphorylation by recombinant Type I PI3K enzymes of the lipid PI(4,5)P2.
DNA fragments encoding human PI3K catalytic and regulatory subunits were isolated from cDNA libraries using standard molecular biology and PCR cloning techniques. The selected DNA fragments were used to generate baculovirus expression vectors. In particular, full length DNA of each of the p110α, p110β and p110δ Type Ia human PI3K p110 isoforms (EMBL Accession Nos. HSU79143, S67334, Y10055 for p110α, p110β and p110δ respectively) were sub-cloned into a pDEST10 vector (Invitrogen Limited, Fountain Drive, Paisley, UK). The vector is a Gateway-adapted version of Fastbac1 containing a 6-His epitope tag. […]
Biotinylated-DiC8-PI(3,4,5)P3 (50 nM; Cell Signals Inc., Catalogue No. 107), recombinant purified GST-Grp1 PH protein (2.5 nM) and AlphaScreen Anti-GST donor and acceptor beads (100 ng; Packard Bioscience Limited, Station Road, Pangbourne, Berkshire, UK, Catalogue No. 6760603M) were added and the assay plates were left for about 5 to 20 hours at room temperature in the dark. The resultant signals arising from laser light excitation at 680 nm were read using a Packard AlphaQuest instrument. […]
Turning to `Cc1cc(NC(=O)Nc2ccc(-c3nc(CS(C)(=O)=O)cc(N4CCOCC4)n3)cc2)no1` [Example 34b, 1-(5-methyl-1,2-oxazol-3-yl)-3-[4-[4-(methylsulfonylmethyl)-6-morpholin-4-yl-pyrimidin-2-yl]phenyl]urea], the IC50 is 91.2 µM and 57.8 µM.
